The record followed here is ChEMBL document CHEMBL1201862, “PubChem BioAssay data set” (2004).

Assay [1] concerns the target T1, Estrogen receptor beta (Homo sapiens, UniProt Q92731). The experiment in a line: blockers of SRC-3 recruitment to ERβ – biochemical, ELISA, streptavidin-HRP readout, orthogonal assay, confirmation (AID 1060). For orientation: An ELISA detects its analyte on a solid surface through an enzyme-linked reagent.
The next assay deals with T2, Estrogen receptor (Homo sapiens, UniProt P03372).
T2 sequence (P03372 whole entry): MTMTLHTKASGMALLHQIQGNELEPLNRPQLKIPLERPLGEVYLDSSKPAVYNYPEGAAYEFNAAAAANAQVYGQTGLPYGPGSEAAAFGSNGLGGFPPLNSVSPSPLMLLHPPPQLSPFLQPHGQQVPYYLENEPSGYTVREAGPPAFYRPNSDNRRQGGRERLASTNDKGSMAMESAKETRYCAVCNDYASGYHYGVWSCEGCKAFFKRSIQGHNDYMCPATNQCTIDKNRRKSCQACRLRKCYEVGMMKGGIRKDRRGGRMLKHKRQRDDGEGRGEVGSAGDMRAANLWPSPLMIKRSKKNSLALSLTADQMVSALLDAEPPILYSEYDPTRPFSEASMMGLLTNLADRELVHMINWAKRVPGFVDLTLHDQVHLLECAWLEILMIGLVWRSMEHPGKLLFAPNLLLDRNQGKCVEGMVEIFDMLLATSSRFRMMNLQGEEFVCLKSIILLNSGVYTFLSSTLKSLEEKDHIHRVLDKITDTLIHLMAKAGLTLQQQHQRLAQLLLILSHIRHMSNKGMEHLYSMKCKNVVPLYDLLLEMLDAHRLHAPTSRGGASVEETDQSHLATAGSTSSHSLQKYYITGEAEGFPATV

For assay [2], the target named is T1, Estrogen receptor beta.
Assay [3] deals with Induced myeloid leukemia cell differentiation protein Mcl-1 (Homo sapiens, UniProt Q07820). The format is functional.
The target in assay [4] is T3, Sentrin-specific protease 8 (Homo sapiens, UniProt Q96LD8).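 Also: kinetic enzyme assay of SENP8 cleaving a Nedd8 protein substrate, dose-response confirmation of screening hits.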
T3 sequence (Q96LD8 whole entry): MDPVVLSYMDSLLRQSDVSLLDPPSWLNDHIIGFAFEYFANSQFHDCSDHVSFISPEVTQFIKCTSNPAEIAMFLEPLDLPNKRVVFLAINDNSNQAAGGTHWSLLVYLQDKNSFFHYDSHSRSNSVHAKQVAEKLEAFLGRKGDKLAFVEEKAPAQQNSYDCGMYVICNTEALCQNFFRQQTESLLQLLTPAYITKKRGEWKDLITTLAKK
The assay is classed as functional.

Assay [5] addresses T4, Corticotropin-releasing factor receptor 2/Corticotropin-releasing factor-binding protein (Homo sapiens, UniProt P24387+Q13324).
T4 sequence (Q13324 whole entry): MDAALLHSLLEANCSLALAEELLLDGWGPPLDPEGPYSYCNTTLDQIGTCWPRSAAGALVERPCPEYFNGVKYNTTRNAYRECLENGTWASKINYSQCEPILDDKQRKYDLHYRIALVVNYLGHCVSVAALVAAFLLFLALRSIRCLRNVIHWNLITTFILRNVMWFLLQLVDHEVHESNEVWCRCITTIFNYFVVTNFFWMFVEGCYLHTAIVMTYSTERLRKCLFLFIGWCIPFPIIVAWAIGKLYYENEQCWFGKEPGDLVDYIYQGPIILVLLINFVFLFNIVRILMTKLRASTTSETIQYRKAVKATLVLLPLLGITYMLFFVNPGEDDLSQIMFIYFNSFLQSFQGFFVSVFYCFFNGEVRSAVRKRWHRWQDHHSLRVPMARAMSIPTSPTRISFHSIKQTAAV
T4 sequence (P24387 whole entry): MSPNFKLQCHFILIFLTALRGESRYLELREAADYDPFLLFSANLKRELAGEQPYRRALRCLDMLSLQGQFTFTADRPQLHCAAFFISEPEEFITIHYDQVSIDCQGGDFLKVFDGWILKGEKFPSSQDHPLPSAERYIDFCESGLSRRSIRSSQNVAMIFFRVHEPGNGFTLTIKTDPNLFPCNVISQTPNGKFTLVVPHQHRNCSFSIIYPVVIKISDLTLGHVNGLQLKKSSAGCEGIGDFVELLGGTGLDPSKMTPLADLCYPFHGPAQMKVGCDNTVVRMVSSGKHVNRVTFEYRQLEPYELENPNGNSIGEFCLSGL
Kind of assay: activators of CRF receptor 2 with binding protein – uHTS hits, confirmation (AID 602473). The format is functional. The note with it: read-out: EC50_Mean.

Assay [6] has as its target T4, Corticotropin-releasing factor receptor 2/Corticotropin-releasing factor-binding protein. The experiment in a line: Dose Response confirmation of uHTS hits for small molecule antagonists of the CRF-binding protein and CRF-R2 receptor complex. The assay is classed as functional. The note with it: read-out: IC50_Mean.
Assay [7] can be described thus: blockers of CRF-binding protein–CRF-R2 complex – cell-based, uHTS hits, 384-well, dose response (AID 651639). The settings on record: read-out: IC50_Mean. The assay is classed as functional, Homo sapiens.
In the next assay the test system is Vero. Kind of assay: viability loss in Vero cells – cell-based, plate reader, cherry-pick samples, cytotoxicity control, dose response (AID 687020). The assay is classed as functional. The note with it: Chlorocebus sabaeus.
For assay [8], the target named is T5, Beta-lactamase (Pseudomonas aeruginosa, UniProt Q79MP6). The experiment in a line: […] counterscreen for selective VIM-2 inhibitors: dose response biochemical high throughput screening assay to identify inhibitors of IMP-1 metallo-beta-lactamase. A general note: The purpose of a counterscreen is to sort out artefacts and off-target activity.
Assay [9] addresses Beta-lactamase (Salmonella choleraesuis (strain SC-B67), UniProt Q5J463). Kind of assay: Epi-absorbance-based counterscreen for selective VIM-2 inhibitors: dose response biochemical high throughput screening assay to identify inhibitors of TEM-1 serine-beta-lactamase.
In assay [10] the target is T5, Beta-lactamase. Kind of assay: inhibition of IMP-1 beta-lactamase activity – biochemical, epi-absorbance, selectivity assay for VIM-2 inhibitor project, dose response (AID 1920).
Assay [11] in a line: Counterscreen for inhibitors of Trypanosoma brucei methionyl tRNA synthetase (MetRS): Luminescence-based cell-based high throughput dose response assay to identify compounds that are cytotoxic to Jurkat human T lymphocyte cells. The assay is classed as functional.
For assay [12], the target named is Long-chain-fatty-acid--AMP ligase FadD28 (Mycobacterium tuberculosis, UniProt P9WQ59). Kind of assay: Fluorescence polarization aasay to screen for inhibitors that compete for the binding of FadD28 to a bisubstrate Measured in Biochemical System Using Plate Reader - 2147-01_Inhibitor_Dose_CherryPick_Activity. The format is functional, Mycobacterium tuberculosis H37Rv. Background: Polarisation of emitted light reports the rotation of a fluorescent probe.

In assay [13] the target is T6, Methionyl-tRNA synthetase, putative (Trypanosoma brucei brucei, UniProt Q38C91). The format is functional, Trypanosoma brucei brucei strain 927/4 GUTat10.1.
Assay [14] has as its target T6, Methionyl-tRNA synthetase, putative. The format is functional, Trypanosoma brucei brucei strain 927/4 GUTat10.1. This is another data set of the same source.

Calls of active or inactive are those of the source. A value given as a limit tells only on which side of the number the result lay.

T6 sequence (Q38C91 whole entry): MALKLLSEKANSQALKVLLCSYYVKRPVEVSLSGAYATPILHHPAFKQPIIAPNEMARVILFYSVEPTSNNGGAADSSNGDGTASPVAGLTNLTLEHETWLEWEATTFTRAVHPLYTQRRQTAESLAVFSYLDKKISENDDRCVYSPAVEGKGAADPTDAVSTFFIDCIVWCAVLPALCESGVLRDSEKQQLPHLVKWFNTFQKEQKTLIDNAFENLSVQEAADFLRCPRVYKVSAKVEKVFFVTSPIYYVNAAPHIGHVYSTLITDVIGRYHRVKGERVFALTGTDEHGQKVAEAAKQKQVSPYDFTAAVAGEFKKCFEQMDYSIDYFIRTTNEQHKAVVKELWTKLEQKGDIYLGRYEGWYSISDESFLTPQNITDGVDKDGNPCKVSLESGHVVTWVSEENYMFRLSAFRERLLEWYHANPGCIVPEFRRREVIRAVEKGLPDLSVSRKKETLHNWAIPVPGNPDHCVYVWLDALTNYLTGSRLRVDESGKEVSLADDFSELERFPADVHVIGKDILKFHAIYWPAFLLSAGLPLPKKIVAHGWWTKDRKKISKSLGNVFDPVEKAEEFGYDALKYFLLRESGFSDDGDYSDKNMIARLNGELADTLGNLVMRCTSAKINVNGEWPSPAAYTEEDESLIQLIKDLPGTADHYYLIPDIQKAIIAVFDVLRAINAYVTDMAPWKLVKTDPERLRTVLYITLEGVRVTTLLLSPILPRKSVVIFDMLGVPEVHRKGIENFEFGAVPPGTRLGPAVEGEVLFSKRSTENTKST
T1 sequence (Q92731 whole entry): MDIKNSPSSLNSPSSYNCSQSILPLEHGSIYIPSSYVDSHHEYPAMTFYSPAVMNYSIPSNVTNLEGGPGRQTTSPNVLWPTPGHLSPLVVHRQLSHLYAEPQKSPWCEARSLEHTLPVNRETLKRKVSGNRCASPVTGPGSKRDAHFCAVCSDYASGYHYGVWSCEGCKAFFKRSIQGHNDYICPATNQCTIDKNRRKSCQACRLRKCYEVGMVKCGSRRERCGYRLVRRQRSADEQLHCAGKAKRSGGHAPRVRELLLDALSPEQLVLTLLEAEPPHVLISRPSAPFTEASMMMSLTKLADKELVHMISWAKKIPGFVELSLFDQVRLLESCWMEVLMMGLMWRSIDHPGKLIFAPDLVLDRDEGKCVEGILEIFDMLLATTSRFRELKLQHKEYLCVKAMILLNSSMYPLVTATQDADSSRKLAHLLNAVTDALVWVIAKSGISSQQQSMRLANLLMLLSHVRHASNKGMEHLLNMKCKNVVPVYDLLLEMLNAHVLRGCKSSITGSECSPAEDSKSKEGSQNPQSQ
T5 sequence (Q79MP6 whole entry): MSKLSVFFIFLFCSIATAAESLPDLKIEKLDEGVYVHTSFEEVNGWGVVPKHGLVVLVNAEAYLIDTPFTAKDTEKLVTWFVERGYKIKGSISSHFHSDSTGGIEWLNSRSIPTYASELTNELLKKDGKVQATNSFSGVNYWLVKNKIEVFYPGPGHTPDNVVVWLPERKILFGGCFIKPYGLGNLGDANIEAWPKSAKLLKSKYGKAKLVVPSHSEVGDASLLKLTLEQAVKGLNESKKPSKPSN
Beta-lactamase (Salmonella choleraesuis (strain SC-B67), UniProt Q5J463), sequence (Q5J463 whole entry): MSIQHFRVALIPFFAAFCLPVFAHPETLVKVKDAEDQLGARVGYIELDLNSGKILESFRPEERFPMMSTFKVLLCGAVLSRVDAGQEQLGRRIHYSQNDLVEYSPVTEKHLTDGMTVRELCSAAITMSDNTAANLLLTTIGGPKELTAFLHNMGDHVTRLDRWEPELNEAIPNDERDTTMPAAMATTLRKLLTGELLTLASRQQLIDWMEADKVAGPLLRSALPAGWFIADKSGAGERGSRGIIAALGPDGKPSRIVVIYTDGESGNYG
Long-chain-fatty-acid--AMP ligase FadD28, sequence (P9WQ59 whole entry): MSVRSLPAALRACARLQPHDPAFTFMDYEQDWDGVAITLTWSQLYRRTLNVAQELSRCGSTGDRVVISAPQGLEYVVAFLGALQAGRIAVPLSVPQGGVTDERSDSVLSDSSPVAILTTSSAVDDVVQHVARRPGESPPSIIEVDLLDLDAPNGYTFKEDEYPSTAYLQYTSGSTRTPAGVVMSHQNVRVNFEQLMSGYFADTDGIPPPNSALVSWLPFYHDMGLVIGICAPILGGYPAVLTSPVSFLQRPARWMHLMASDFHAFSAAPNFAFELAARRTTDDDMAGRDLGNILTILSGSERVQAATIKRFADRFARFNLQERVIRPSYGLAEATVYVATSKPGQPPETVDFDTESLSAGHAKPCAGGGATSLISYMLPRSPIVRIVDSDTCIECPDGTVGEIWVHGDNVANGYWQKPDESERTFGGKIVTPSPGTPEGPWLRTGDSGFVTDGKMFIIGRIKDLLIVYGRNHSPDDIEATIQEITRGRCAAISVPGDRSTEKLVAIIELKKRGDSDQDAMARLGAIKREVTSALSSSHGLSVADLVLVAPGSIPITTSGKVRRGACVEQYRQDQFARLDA
Induced myeloid leukemia cell differentiation protein Mcl-1, sequence (Q07820 whole entry): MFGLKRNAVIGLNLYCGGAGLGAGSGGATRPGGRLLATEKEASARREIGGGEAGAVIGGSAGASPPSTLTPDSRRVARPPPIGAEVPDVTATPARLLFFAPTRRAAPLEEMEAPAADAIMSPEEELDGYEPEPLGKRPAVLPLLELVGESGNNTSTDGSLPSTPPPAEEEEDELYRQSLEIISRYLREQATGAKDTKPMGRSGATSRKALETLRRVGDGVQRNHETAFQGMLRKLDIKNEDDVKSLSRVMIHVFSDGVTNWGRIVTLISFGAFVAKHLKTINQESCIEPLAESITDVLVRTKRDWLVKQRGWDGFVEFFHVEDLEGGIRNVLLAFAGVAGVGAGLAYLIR

Take `CC1=C(SCCC#N)S/C(=C2\SC(C)=C(SCCC#N)S2)S1`: the IC50 is 0.129 µM (not active) against Estrogen receptor beta [1]; 5.1 µM (active) at Estrogen receptor; > 50 µM (not active) against Estrogen receptor beta [2]; 2.89 µM (active) in assay [3]; 0.299 µM (active) in [4].

Consider `CCOC(=O)CSC1=C(C#N)C(c2ccc(Cl)cc2)C(C(=O)OC)C(=O)N1` (stereo unspecified), for which the EC50 in assay [5] is > 53 µM (inactive). In addition, the IC50 was 26.5 µM (active) in assay [6] and 9.62 µM (active) in assay [7].

By AC50 is commonly meant the midpoint of the concentration-response curve, whichever way the signal moves. As for `CN1C[C@@H]2[C@@H]3C(=O)N(Cc4ccccc4)C(=O)[C@@H]3[C@](C)(C1=O)N2C(=O)c1ccc(C(C)(C)C)cc1`, the AC50 with Vero was 24.6 µM (active).

For the compound `Sc1nnc(-c2ccco2)n1-c1cccc2ccccc12`, the IC50 on Beta-lactamase [8], on Beta-lactamase [9] and at Beta-lactamase [10] was > 59.6 µM (inactive) throughout.

As for `O=C(NN1C(=O)/C(=C/c2nc3ccccc3[nH]2)SC1=S)c1ccc(Cl)cc1`, the IC50 in [11] is 83.3 µM (inactive); in assay [13], 119 µM (inactive); in [14], 82.6 µM (inactive). For the same compound, the AC50 in assay [12] was 1.13 µM (active).
